From patent US9018219B2, “Fused aminodihydropyrimidine derivative” (Shionogi & Co., Ltd., priority 2010, dated 2015)

Tests used:
[1] = molecular target: T1, human ether-a-go-go related gene (hERG) channel (Homo sapiens, UniProt Q12809); experiment: hERG test; type: cell-based; conditions: HEK293 cells expressing hERG channel, whole cell patch clamp, 10 minutes, concentration not given
T1 construct: expressed in transfected cells; host or cells: HEK293
Description: For the purpose of assessing risk of an electrocardiogram QT interval prolongation, effects on delayed rectifier K+ current (IKr), which plays an important role in the ventricular repolarization process, of the compound of the present invention was studied using HEK293 cells expressing human ether-a-go-go related gene (hERG) channel.
A cell was retained at a membrane potential of −80 mV by whole cell patch clamp method using an automated patch clamp system (PatchXpress 7000A, Axon Instruments Inc.) and leakage potential at −50 mV was generated. IKr induced by depolarization pulse stimulation at +40 mV for 2 seconds and, further, repolarization pulse stimulation at −50 mV for 2 seconds was recorded. […] From the recording IKr, an absolute value of the tail peak current was measured based on the current value at the resting membrane potential using an analysis software (DataXpress ver.1, Molecular Devices Corporation). Further, the % inhibition relative to the tail peak current before application of the compound of the present invention was calculated, and compared with the vehicle-applied group (0.1% dimethyl sulfoxide solution) to assess influence of the compound of the present invention on IKr.

[2] = molecular target: CYP3A4 (Homo sapiens, UniProt P08684); experiment: CYP inhibition test (CYP3A4); type: in vitro ADME; design: enzyme, pooled human hepatic microsome 0.2 mg protein/mL; from tissue; conditions: pooled human hepatic microsome 0.2 mg protein/mL, 15 minutes, 37° C.; read-out: IC50 CYP3A4 (terfenedine hydroxylation)
Chain of CYP3A4 (P08684 whole entry): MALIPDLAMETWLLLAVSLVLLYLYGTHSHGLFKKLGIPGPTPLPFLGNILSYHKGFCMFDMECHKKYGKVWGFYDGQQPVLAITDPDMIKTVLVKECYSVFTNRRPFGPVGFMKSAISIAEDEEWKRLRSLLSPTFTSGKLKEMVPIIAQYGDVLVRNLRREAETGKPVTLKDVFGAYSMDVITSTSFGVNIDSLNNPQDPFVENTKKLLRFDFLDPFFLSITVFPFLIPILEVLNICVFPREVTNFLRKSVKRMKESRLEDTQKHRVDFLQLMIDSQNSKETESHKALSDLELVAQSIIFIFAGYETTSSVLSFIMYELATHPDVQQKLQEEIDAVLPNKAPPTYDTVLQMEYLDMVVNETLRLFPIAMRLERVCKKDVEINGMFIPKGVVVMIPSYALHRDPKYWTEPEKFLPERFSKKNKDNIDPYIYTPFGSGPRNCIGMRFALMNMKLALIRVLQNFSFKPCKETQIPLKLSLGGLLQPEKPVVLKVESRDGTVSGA
Description: (§1) Using commercially available pooled human hepatic microsome, and employing, as markers, 7-ethoxyresorufin O-deethylation (CYP1A2), tolbutamide methyl-hydroxylation (CYP2C9), mephenyloin 4′-hydroxylation (CYP2C19), dextromethorphan O-demethylation (CYP2D6), and terfenedine hydroxylation (CYP3A4) as typical substrate metabolism reactions of human main five CYP enzyme forms (CYP1A2, 2C9, 2C19, 2D6, 3A4), an inhibitory degree of each metabolite production amount by a compound of the present invention was assessed. […] After the centrifugation at 3000 rpm for 15 minutes, resorufin (CYP1A2 metabolite) in the supernatant was quantified by a multi-label counter and hydroxytolbutamide (CYP2C9 metabolite), 4′-hydroxymephenyloin (CYP2C19 metabolite), dextrorphan (CYP2D6 metabolite), and terfenadine alcohol metabolite (CYP3A4 metabolite) were quantified by LC/MS/MS. Addition of only DMSO being a solvent dissolving a compound to a reaction system was adopted as a control (100%), remaining activity (%) was calculated and IC50 was calculated by reverse presumption by a logistic model using a concentration and an inhibition rate.

[3] = molecular target: T2, CYP2D6 (Homo sapiens, UniProt P10635); experiment: CYP inhibition test (CYP2D6); type: in vitro ADME; conditions: pooled human hepatic microsome 0.2 mg protein/mL, 15 minutes, 37° C.; read-out: IC50 CYP2D6 (dextromethorphan O-demethylation)
T2 construct: enzyme, pooled human hepatic microsome 0.2 mg protein/mL; from tissue
T2 sequence (P10635 whole entry): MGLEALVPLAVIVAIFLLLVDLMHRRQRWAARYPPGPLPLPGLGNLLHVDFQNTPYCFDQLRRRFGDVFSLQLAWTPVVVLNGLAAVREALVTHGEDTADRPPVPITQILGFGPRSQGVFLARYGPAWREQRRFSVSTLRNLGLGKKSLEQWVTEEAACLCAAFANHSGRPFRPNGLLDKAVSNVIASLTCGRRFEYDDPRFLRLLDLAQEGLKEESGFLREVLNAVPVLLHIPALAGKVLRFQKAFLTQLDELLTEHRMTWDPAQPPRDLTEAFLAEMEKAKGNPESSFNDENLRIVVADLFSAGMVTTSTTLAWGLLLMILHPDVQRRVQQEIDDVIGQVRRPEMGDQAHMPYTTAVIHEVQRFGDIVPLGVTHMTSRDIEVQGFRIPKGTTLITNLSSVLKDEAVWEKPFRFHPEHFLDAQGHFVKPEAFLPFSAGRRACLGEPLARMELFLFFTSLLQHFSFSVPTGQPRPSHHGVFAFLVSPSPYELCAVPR
Description: as §1

[4] = molecular target: T3, CYP2C9 (Homo sapiens, UniProt P11712); experiment: CYP inhibition test (CYP2C9); type: in vitro ADME; conditions: pooled human hepatic microsome 0.2 mg protein/mL, 15 minutes, 37° C.; read-out: IC50 CYP2C9 (tolbutamide methyl-hydroxylation)
T3 construct: enzyme, pooled human hepatic microsome 0.2 mg protein/mL; from tissue
T3 sequence (P11712 whole entry): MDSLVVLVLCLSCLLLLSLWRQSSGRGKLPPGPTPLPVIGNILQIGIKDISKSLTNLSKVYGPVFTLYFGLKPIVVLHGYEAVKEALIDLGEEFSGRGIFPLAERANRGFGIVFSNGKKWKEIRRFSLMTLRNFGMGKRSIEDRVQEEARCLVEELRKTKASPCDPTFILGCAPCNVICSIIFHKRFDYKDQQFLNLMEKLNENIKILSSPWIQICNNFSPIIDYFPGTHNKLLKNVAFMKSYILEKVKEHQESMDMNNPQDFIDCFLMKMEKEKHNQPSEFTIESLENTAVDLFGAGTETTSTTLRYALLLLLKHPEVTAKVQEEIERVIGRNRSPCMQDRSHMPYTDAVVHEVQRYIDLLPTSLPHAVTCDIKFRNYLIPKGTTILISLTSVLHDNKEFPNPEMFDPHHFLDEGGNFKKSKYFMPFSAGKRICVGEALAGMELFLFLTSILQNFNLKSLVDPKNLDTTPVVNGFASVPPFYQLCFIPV
Description: as §1

[5] = system: Neuroblastoma SH-SY5Y cells (SH/APPwt) with human wild-type β-APP excessively expressed; experiment: Measurement of β-amyloid (Aβ) production inhibiting effect in cell; type: cell-based; conditions: 24 hours incubation, Amyloid β 1-40 HTRF in culture supernatant, read-out: IC50 (amount needed to inhibit Aβ production by 50%)
Method: Neuroblastoma SH-SY5Y cells (SH/APPwt) with human wild-type β-APP excessively expressed therein were prepared at 8×10^5 cells/mL, and 150 μl portions thereof were inoculated into each well of a 96-well culture plate (Falcon). The cells were cultured for 2 hours at 37° C. in a 5% gaseous carbon dioxide incubator. Then, a solution which have been preliminarily prepared by adding and suspending the compound of the present invention (DMSO (dimethyl sulfoxide) solution) so as to be 2 μl/50 μl medium was added to the cell sap. Namely, the final DMSO concentration was 1%, and the amount of the cell culture was 200 μl. After the incubation was performed for 24 hours from the addition of the test compound, 100 μl of the culture supernatant was collected from each fraction. The amount of the Aβ in each fraction was measured.
The Aβ amount was measured as follows. 10 μl of a homogeneous time resolved fluorescence (HTRF) measurement reagent (Amyloid β 1-40 peptide; IBA Molecular Holding, S.A.) and 10 μl of the culture supernatant were put into a 384-well half area microplate (black microplate, Costar) and mixed with each other, and then left standing overnight at 4° C. while the light was shielded. Then, the fluorescence intensity (excitation wavelength: 337 nm, measurement wavelength: 620 nm and 665 nm) was measured with Wallac 1420 multilabel counter (Perkin Elmer life sciences). The Aβ amount was determined from the count rate at each measurement wavelength (10000×Count 665/Count 620), and the amount needed to inhibit Aβ production by 50% (IC50) was calculated from at least six different dosages.

T1 sequence (Q12809 whole entry): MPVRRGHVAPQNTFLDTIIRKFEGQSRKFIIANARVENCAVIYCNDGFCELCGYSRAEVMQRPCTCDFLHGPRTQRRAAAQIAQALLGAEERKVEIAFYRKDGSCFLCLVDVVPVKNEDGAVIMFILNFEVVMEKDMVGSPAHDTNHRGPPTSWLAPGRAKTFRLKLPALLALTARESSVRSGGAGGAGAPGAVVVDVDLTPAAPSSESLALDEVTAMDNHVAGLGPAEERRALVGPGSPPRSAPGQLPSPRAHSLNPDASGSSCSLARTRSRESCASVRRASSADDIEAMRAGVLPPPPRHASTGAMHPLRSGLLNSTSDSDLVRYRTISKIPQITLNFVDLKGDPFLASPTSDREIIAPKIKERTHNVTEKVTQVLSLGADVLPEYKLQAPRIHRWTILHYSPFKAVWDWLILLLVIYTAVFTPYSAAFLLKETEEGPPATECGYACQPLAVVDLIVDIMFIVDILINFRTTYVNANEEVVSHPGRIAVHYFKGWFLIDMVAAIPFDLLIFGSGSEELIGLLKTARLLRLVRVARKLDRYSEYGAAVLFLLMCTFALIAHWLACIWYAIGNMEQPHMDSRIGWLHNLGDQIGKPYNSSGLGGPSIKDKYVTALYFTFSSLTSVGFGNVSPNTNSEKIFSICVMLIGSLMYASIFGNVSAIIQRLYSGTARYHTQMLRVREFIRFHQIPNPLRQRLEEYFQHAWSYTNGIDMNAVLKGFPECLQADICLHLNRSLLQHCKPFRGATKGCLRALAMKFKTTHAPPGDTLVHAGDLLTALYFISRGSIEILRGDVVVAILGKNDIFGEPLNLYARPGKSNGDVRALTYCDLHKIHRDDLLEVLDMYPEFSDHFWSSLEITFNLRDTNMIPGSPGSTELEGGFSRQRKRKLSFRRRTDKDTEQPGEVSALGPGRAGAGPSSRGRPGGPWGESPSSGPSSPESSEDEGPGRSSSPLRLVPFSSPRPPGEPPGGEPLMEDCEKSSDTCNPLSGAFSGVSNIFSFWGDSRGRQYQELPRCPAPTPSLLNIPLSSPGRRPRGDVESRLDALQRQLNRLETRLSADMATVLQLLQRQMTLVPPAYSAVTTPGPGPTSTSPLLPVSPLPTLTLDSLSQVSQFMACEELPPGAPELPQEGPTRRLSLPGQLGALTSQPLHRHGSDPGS

Structure (SMILES): C[C@@]1(c2cc(-c3cccnc3F)ccc2F)Cc2nccn2C(N)=N1 [Compound I-2]
- % inhibition of IKr tail peak current [1]: 12.3%
- IC50 [2]: > 20 µM
- IC50 [3]: > 20 µM
- IC50 [4]: > 20 µM
- IC50 [5]: ≤ 1 µM
